Measurements reported in US10323000B2, “Indole derivatives and their use in neurodegenerative diseases” (priority 2014, dated 2019).
Read-outs that look alike come from different tables or passages of the source.

Columns and labels:
human P2X7 receptor = human P2X7 receptor (Homo sapiens (Human), UniProt Q99572); assay: Pore permeation assay (YO PRO dye uptake); format: cell-based
Experimental: Agonist-induced pore formation was determined by measuring cellular uptake of YO PRO fluorescence dye in HEK293 transfected with human P2X7 receptor. A HEK293 cell over expressing human P2X7 was harvested using HQTase reagent to detach the cells from T75 cm flask. The harvested cells are centrifuged @1200 rpm for 5 min at room temperature. The viability of cells was determined by Trypan blue dye and the cells are plated @10,000 cell/well in 50 ul volume in a 384W BD Poly lysine coated plate and incubated overnight at 37 C. […] The plate was centrifuged at 1000 rpm for 5 seconds and incubated at room temperature for 30 minutes. The uptake of YO PRO dye into the cells was measured using Envision Fluorescence plate reader instrument (Perkin Elmer).

[1] = target: P2X7 (IL-1β release from THP-1 cells) (Homo sapiens (Human), UniProt Q99572); assay: IL-1β release assay; format: cell-based
Sequence of P2X7 (IL-1β release from THP-1 cells) (Q99572 whole entry): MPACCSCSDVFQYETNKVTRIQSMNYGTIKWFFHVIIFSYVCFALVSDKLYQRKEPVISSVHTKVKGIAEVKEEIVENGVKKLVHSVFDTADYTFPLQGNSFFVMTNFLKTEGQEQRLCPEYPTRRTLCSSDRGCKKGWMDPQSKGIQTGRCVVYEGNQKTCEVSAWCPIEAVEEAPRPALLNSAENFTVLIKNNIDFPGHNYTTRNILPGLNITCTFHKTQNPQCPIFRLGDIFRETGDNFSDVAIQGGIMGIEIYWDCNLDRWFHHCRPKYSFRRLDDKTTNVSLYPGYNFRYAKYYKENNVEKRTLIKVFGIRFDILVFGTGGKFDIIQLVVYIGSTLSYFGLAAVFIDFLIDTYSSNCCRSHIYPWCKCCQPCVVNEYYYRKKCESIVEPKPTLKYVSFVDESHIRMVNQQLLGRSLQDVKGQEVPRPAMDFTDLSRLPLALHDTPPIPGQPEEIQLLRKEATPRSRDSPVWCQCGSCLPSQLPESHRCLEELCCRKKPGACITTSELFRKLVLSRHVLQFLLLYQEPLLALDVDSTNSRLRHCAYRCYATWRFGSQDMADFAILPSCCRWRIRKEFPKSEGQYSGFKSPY
Experimental: IL-1β release assay: The activation of P2X7 by ATP leads to a fast transient activation of cells resulting in influx of Ca^2+ followed by conversion of pro-IL-1β to active IL-1β. The functional activity of P2X7 compounds was measured by the release of mature […] in the culture medium of THP-1 cells, detected by sandwich ELISA. […] THP-1 cells were harvested from the flask in 50 ml by centrifugation for 3 min at 100 g. The cells were resuspended to 2×10^5 cells/ml in medium supplemented with 0.5 μM PMA and incubated. The cells were washed and resuspended to 1.5×10^5 cells/ml in medium complemented with 10 ng/ml LPS, and the cells were primed for 4 h at 37° C., 5% CO2. After addition of 20 μL of prediluted test compounds, blank, standard and control reagents, cells were incubated for a further 20 min at 37° C. and stimulated with 0.8 mM BzATP for 30 minutes. The cells were centrifuged, supernatant was collected and the presence of mature IL-1β was detected using Dual human IL-1b kit following manufacturer's instruction. The tetrahydrobenzodiazepine analogs effectively modulated the activity of P2X7 in the cells as measured by the levels of pro-inflammatory cytokine IL-1β, which is released by the activation of P2X7 receptor.

[2] = HEK293 transfected with human P2X7, BzATP 10 uM, YO PRO dye uptake, read-out: hP2X7 IC50

Sequence of human P2X7 receptor (Q99572 whole entry): as above

Row | SMILES | IC50 (human P2X7 receptor) [nM] | IC50 (human P2X7 receptor; [2]) [nM] | also measured
1 | O=C(NCC1CCCC(F)(F)C1)c1cn(C2COC2)c2cccc(Cl)c12 (racemic) [Compound 69, 4-chloro-N-((3,3-difluorocyclohexyl)methyl)-1-(oxetan-3-yl)-1H-indole-3-carboxamide] | 10 to 100 | – | IC50 [1]: 101 to 500 nM
2 | O=C(NCC1(O)CCCC(F)(F)C1)c1cn(C2COC2)c2cccc(Cl)c12 (racemic) [Compound 86, 4-chloro-N-((3,3-difluoro-1-hydroxycyclohexyl)methyl)-1-(oxetan-3-yl)-1H-indole-3-carboxamide] | 10 to 100 | – | IC50 [1]: 10 to 100 nM
3 | CC1CC(F)(F)CC(O)(CNC(=O)c2cn(CC(F)(F)F)c3cccc(Cl)c23)C1 (stereo not drawn) [Compound 1, 4-chloro-N-((3,3-difluoro-1-hydroxy-5-methylcyclohexyl)methyl)-1-(2,2,2-trifluoroethyl)-1H-indole-3-carboxamide] | – | 101 to 500 | IC50 ([1]; THP-1 cells, LPS primed, 0.8 mM BzATP, mature IL-1β by sandwich ELISA, read-out: hTHP-1/IL-ib IC50): > 1000 nM
4 | C[C@H]1CCC[C@@](O)(CNC(=O)c2cn(CC(F)(F)F)c3cccc(Cl)c23)C1 [Compound 2, 4-chloro-N-(((1S,3S)-1-hydroxy-3-methylcyclohexyl)methyl)-1-(2,2,2-trifluoroethyl)-1H-indole-3-carboxamide] | 10 to 100 | – | IC50 [1]: 10 to 100 nM
5 | C[C@@H]1CCC[C@](O)(CNC(=O)c2cn(CC(F)(F)F)c3cccc(Cl)c23)C1 [Compound 3, 4-chloro-N-(((1R,3R)-1-hydroxy-3-methylcyclo-hexyl)methyl)-1-(2,2,2-trifluoroethyl)-1H-indole-3-carboxamide] | 10 to 100 | – | IC50 [1]: 101 to 500 nM
6 | O=C(NCC1(O)CCC(F)(F)CC1)c1cn(CC(F)(F)F)c2cccc(Cl)c12 [Compound 4, 4-chloro-N-((4,4-difluoro-1-hydroxycyclohexyl)methyl)-1-(2,2,2-trifluoroethyl)-1H-indole-3-carboxamide] | 10 to 100 | – | IC50 [1]: 101 to 500 nM
7 | O=C(NCC1CCC(F)(F)CC1)c1cn(CC(F)(F)F)c2cccc(Cl)c12 [Compound 5, 4-chloro-N-((4,4-difluorocyclohexyl)methyl)-1-(2,2,2-trifluoroethyl)-1H-indole-3-carboxamide] | 10 to 100 | – | IC50 [1]: 101 to 500 nM
8 | NCCn1cc(C(=O)NCC2CCC(F)(F)CC2)c2c(Cl)cccc21 [Compound 6, 1-(2-aminoethyl)-4-chloro-N-((4,4-difluorocyclo-hexyl)methyl)-1H-indole-3-carboxamide] | 101 to 500 | – | IC50 [1]: 10 to 100 nM
9 | O=C(NCC1(O)CCCC(C(F)(F)F)C1)c1cn(C2COC2)c2cccc(Cl)c12 (stereo not drawn) [Compound 47, 4-chloro-N-((1-hydroxy-3-(trifluoromethyl)cyclohexyl)methyl)-1-(oxetan-3-yl)-1H-indole-3-carboxamide] | – | > 1000 | –
10 | CC(O)(CNC(=O)c1cn(C2COC2)c2cccc(Cl)c12)C1CCCC1 (stereo not drawn) [Compound 49, 4-Chloro-1-oxetan-3-yl-1H-indole-3-carboxylic acid (2-cyclopentyl-2-hydroxy-propyl)-amide] | 500 to 999 | – | –
11 | CC(C)(CNC(=O)c1cn(C2COC2)c2cccc(Cl)c12)C1CCCC1 [Compound 50, 4-Chloro-1-oxetan-3-yl-1H-indole-3-carboxylic acid (2-cyclopentyl-2-methyl-propyl)-amide] | 101 to 500 | – | –
12 | O=C(N[C@@H](C1CCCCC1)C(F)(F)F)c1cn(C2COC2)c2cccc(Cl)c12 [Compound 52, 4-Chloro-1-oxetan-3-yl-1H-indole-3-carboxylic acid ((S)-1-cyclohexyl-2,2,2-trifluoro-ethyl)-amide] | 500 to 999 | – | –
13 | CC(C)(NC(=O)c1cn(C2COC2)c2cccc(Cl)c12)[C@]12C[C@H]3C[C@H](C[C@H](C3)C1)C2 [Compound 54, 4-Chloro-1-oxetan-3-yl-1H-indole-3-carboxylic acid (1-adamantan-1-yl-1-methyl-ethyl)-amide] | – | 101 to 500 | –
14 | O=C(NC1(C2CCCCC2)CC1)c1cn(C2COC2)c2cccc(Cl)c12 [Compound 55, 4-Chloro-1-oxetan-3-yl-1H-indole-3-carboxylic acid (1-cyclohexyl-cyclopropyl)-amide] | 101 to 500 | – | –
15 | O=C(NCC1(O)CCCC2(CC2)C1)c1cn(C2COC2)c2cccc(Cl)c12 (stereo not drawn) [Compound 57, 4-chloro-N-((5-hydroxyspiro[2.5]octan-5-yl)methyl)-1-(oxetan-3-yl)-1H-indole-3-carboxamide] | 101 to 500 | – | –
16 | O=C(NC(c1cccs1)C1CCCCC1)c1cn(C2COC2)c2cccc(Cl)c12 (stereo not drawn) [Compound 60, 4-Chloro-1-oxetan-3-yl-1H-indole-3-carboxylic acid (cyclohexyl-thiophen-2-yl-methyl)-amide] | – | > 1000 | –

Row | SMILES | IC50 (human P2X7 receptor) [nM] | IC50 (human P2X7 receptor; [2]) [nM] | also measured
17 | C[C@@H](NC(=O)c1cn(C2COC2)c2cccc(Cl)c12)[C@@]12C[C@@H]3C[C@@H](C[C@@](O)(C3)C1)C2 [Compound 61, 4-Chloro-1-oxetan-3-yl-1H-indole-3-carboxylic acid [(3-hydroxy-adamantan-1-yl)-ethyl]-amide] | – | 500 to 999 | –
18 | O=C(N[C@@H](CO)C1CCCCC1)c1cn(C2COC2)c2cccc(Cl)c12 [Compound 63, 4-Chloro-1-oxetan-3-yl-1H-indole-3-carboxylic acid ((R)-1-cyclohexyl-2-hydroxy-ethyl)-amide] | – | > 1000 | –
19 | CC1(CCNC(=O)c2cn(C3COC3)c3cccc(Cl)c23)OCCO1 [Compound 71, 4-Chloro-1-oxetan-3-yl-1H-indole-3-carboxylic acid [2-(2-methyl-dioxolan-2-yl)-ethyl]-amide] | – | > 1000 | –
20 | O=C(NCC(F)F)c1cn(C2COC2)c2cccc(Cl)c12 [Compound 76, 4-Chloro-1-oxetan-3-yl-1H-indole-3-carboxylic acid (2,2-difluoro-ethyl)-amide] | > 1000 | – | –
21 | O=C(NCCC(F)(F)F)c1cn(C2COC2)c2cccc(Cl)c12 [Compound 77, 4-Chloro-1-oxetan-3-yl-1H-indole-3-carboxylic acid (3,3,3-trifluoro-propyl)-amide] | – | > 1000 | –
22 | CCOC(C)CNC(=O)c1cn(C2COC2)c2cccc(Cl)c12 (stereo not drawn) [Compound 78, 4-Chloro-1-oxetan-3-yl-1H-indole-3-carboxylic acid (2-ethoxy-propyl)-amide] | – | > 1000 | –
23 | CC1CC(O)(CNC(=O)c2cn(C3CCCO3)c3cccc(Cl)c23)CCC1(F)F (stereo not drawn) [Compound 97, 4-chloro-N-((4,4-difluoro-1-hydroxy-3-methylcyclohexyl)methyl)-1-(tetrahydrofuran-2-yl)-1H-indole-3-carboxamide] | 101 to 500 | – | –
24 | O=C(NCC1CCC(F)(F)CC1)c1cn(C2CCCO2)c2cccc(Cl)c12 (stereo not drawn) [Compound 99, 4-chloro-N-((4,4-difluorocyclohexyl)methyl)-1-(tetrahydrofuran-2-yl)-1H-indole-3-carboxamide] | 101 to 500 | – | –
25 | CC(C)(CNC(=O)c1cn(C2CCOC2)c2cccc(Cl)c12)C1CCCC1 (stereo not drawn) [Compound 103, 4-Chloro-1-(tetrahydro-furan-3-yl)-1H-indole-3-carboxylic acid (2-cyclopentyl-2-methyl-propyl)-amide] | 101 to 500 | – | –
26 | O=C(NCC1(O)CCC(F)(F)CC1)c1cn(C2CCOC2)c2cccc(Cl)c12 (stereo not drawn) [Compound 104, 4-Chloro-1-(tetrahydro-furan-3-yl)-1H-indole-3-carboxylic acid (4,4-difluoro-1-hydroxy-cyclohexylmethyl)-amide] | 101 to 500 | – | –
27 | O=C(NC(CCO)C1CCCCC1)c1cn(C2CCOC2)c2cccc(Cl)c12 (stereo not drawn) [Compound 110, 4-Chloro-1-(tetrahydro-furan-3-yl)-1H-indole-3-carboxylic acid (1-cyclohexyl-3-hydroxy-propyl)-amide] | 101 to 500 | – | –
28 | CN(C)C(CNC(=O)c1cn(C2CCOC2)c2cccc(Cl)c12)C1CCCCC1 (stereo not drawn) [Compound 111, 4-Chloro-1-(tetrahydro-furan-3-yl)-1H-indole-3-carboxylic acid (2-cyclohexyl-2-dimethylamino-ethyl)-amide] | – | > 1000 | –
29 | O=C(NCC1(O)CCCC(C(F)(F)F)C1)c1cn(CC2CCCO2)c2cccc(Cl)c12 (stereo not drawn) [Compound 136, 4-chloro-N-((1-hydroxy-3-(trifluoromethyl)cyclohexyl)methyl)-1-((tetrahydrofuran-2-yl)methyl)-1H-indole-3-carboxamide] | – | > 1000 | –
30 | O=C(NCC1CCC(F)(F)CC1)c1cn(C2CC3(CNC3)C2)c2cccc(Cl)c12 (stereo not drawn) [Compound 172, 4-chloro-N-((4,4-difluorocyclohexyl)methyl)-1-(2-azaspiro[3.3]heptan-6-yl)-1H-indole-3-carboxamide] | 500 to 999 | – | –
31 | O=C(NCC1(O)CCCC(F)(F)C1)c1cn(CCN2CCCCC2)c2cccc(Cl)c12 (stereo not drawn) [Compound 192, 4-chloro-N-((3,3-difluoro-1-hydroxycyclohexyl)methyl)-1-(2-(piperidin-1-yl)ethyl)-1H-indole-3-carboxamide] | 101 to 500 | – | –
